Measurements from patent publication US20220033363A1, “HERBICIDALLY ACTIVE SUBSTITUTED PHENYLPYRIMIDINE HYDRAZIDES” (Bayer Aktiengesellschaft, priority 2018, published 2022).

Assays:
Format in all cases: in vivo
[1] = tested on: Echinochloa crus-galli; assay: Herbicidal pre-emergence action (Method B) against ECHCG; conditions: 504 h, scored visually after about 3 weeks vs untreated controls
Source text: (§1) Method B: Herbicidal Pre-Emergence Action Seeds of mono- and dicotyledonous weed plants are placed in plastic pots in sandy loam soil (doubly sown with one species each of mono- or dicotyledonous weed plants per pot) and covered with soil. The compounds of the invention, formulated in the form of wettable powders (WP) or as emulsion concentrates (EC), are then applied onto the surface of the covering soil as aqueous suspension or emulsion with addition of 0.5% additive at a water application rate equivalent to 600 liters per hectare. After the treatment, the pots are placed in a greenhouse and kept under good growth conditions for the trial plants. After about 3 weeks, the effect of the preparations is scored visually in comparison with untreated controls as percentages. For example, 100% action=the plants have died, 0% action=like control plants.

[2] = tested on: Poa annua; assay: Herbicidal post-emergence action (Method A) against POAAN; conditions: 504 h, rated visually after about 3 weeks vs untreated controls; for pest or weed control at 320 g/ha: read-out: Post-emergence action at 320 g/ha against POANN; for pest or weed control at 1280 g/ha: read-out: Post-emergence action at 1280 g/ha against POANN
Procedure: (§2) Method A: Herbicidal Post-Emergence Action Seeds of mono- and dicotyledonous weed plants are placed in plastic pots in sandy loam soil (twin sowing with one species each of mono- or dicotyledonous weed plants per pot), covered with soil and cultivated in a greenhouse under controlled growth conditions. 2 to 3 weeks after sowing, the test plants are treated at the one-leaf stage. The compounds of the invention, formulated in the form of wettable powders (WP) or as emulsion concentrates (EC), are applied to the green parts of the plants as aqueous suspension or emulsion with addition of 0.5% additive at a water application rate equivalent to 600 liters per hectare. After the test plants have been kept in the greenhouse under optimum growth conditions for about 3 weeks, the activity of the preparations is rated visually in comparison to untreated controls. For example, 100% activity=the plants have died, 0% activity=like control plants.

[3] = tested on: Amaranthus retroflexus; assay: Herbicidal post-emergence action (Method A) against AMARE; conditions: rated visually after about 3 weeks vs untreated controls
Procedure: as §2

[4] = tested on: Stellaria media; assay: Herbicidal post-emergence action (Method A) against STEME; conditions: 504 h, rated visually after about 3 weeks vs untreated controls
Procedure: as §2

[5] = tested on: harmful plants; assay: Herbicidal post-emergence action (Method A), summary statement; conditions: summary of tables A1-A11
Procedure: as §2

[6] = tested on: Stellaria media; assay: Herbicidal pre-emergence action (Method B) against STEME; conditions: 504 h; for pest or weed control at 320 g/ha: dosage 320 g/ha; for pest or weed control at 1280 g/ha: dosage 1280 g/ha
Source text: as §1

[7] = tested on: Lolium rigidum; assay: Herbicidal pre-emergence action (Method B) against LOLRI; conditions: 504 h, scored visually after about 3 weeks vs untreated controls
Source text: as §1

[8] = tested on: Lolium rigidum; assay: Herbicidal post-emergence action (Method A) against LOLRI; conditions: rated visually after about 3 weeks vs untreated controls; for pest or weed control at 1280 g/ha: Lolium rigidum, post-emergence, 504 h
Procedure: as §2

[9] = tested on: Matricaria inodora; assay: Herbicidal post-emergence action (Method A) against MATIN; conditions: rated visually after about 3 weeks vs untreated controls
Procedure: as §2

[10] = tested on: Matricaria inodora; assay: Herbicidal pre-emergence action (Method B) against MATIN; conditions: Tripleurospermum inodorum, 504 h, scored visually after about 3 weeks vs untreated controls
Source text: as §1

[11] = tested on: Poa annua; assay: Herbicidal pre-emergence action (Method B) against POAAN; conditions: 504 h, scored visually after about 3 weeks vs untreated controls
Source text: as §1

[12] = tested on: Echinochloa crus-galli; assay: Herbicidal post-emergence action (Method A) against ECHCG; conditions: rated visually after about 3 weeks vs untreated controls; for pest or weed control at 1280 g/ha: Echinochloa crus-galli, post-emergence, 504 h
Procedure: as §2

[13] = tested on: Setaria viridis; assay: Herbicidal pre-emergence action (Method B) against SETVI; conditions: 1280 g/ha, scored visually after about 3 weeks vs untreated controls
Source text: as §1

[14] = tested on: Abutilon theophrast; assay: Herbicidal pre-emergence action (Method B) against ABUTH; conditions: 1280 g/ha, scored visually after about 3 weeks vs untreated controls
Source text: as §1

Row | SMILES | pest or weed control at 320 g/ha [1] [%] | pest or weed control at 1280 g/ha [1] [%] | pest or weed control at 320 g/ha [2] [%] | pest or weed control at 1280 g/ha [2] [%] | Post-emergence action at 1280 g/ha against AMARE [3] [%] | pest or weed control at 320 g/ha [4] [%] | pest or weed control at 1280 g/ha [4] [%] | pest or weed control at 320 g/ha [6] [%] | pest or weed control at 1280 g/ha [6] [%] | pest or weed control at 320 g/ha [7] [%] | pest or weed control at 1280 g/ha [7] [%] | pest or weed control at 1280 g/ha [8] [%] | Post-emergence action at 1280 g/ha against MATIN [9] [%] | pest or weed control at 1280 g/ha [10] [%] | pest or weed control at 320 g/ha [11] [%] | pest or weed control at 1280 g/ha [11] [%] | Post-emergence action at 320 g/ha against ECHCG [12] [%] | pest or weed control at 1280 g/ha [12] [%] | Post-emergence action at 320 g/ha against LOLRI [8] [%] | pest or weed control at 320 g/ha [10] [%] | other results
1 | CN(N)C(=O)c1nc(C2CC2)ncc1-c1ccccc1Cl [Example I-500, 5-(2-chlorophenyl)-2-cyclopropyl-N-methylpyrimidine-4-carbohydrazide] | 90 | 100 | 100 | 100 | 100 | 100 | 100 | 100 | 100 | 90 | 100 | 90 | 90 | 100 | 100 | 100 |  |  |  |  | herbicidal efficacy against harmful plants in the case of post-emergence treatment [5]: good herbicidal efficacy; Post-emergence action at 320 g/ha against MATIN ([9]; 320 g/ha): 90%
2 | CN(C)NC(=O)c1nc(C2CC2)ncc1-c1ccccc1Cl [Example I-501, 5-(2-chlorophenyl)-2-cyclopropyl-N′,N′-dimethylpyrimidine-4-carbohydrazide] | 100 | 100 | 100 | 100 | 100 | 100 | 100 | 100 | 100 | 100 | 100 | 100 | 90 | 100 | 100 | 100 | 100 | 100 | 100 | 100 | 
3 | O=C(NNc1ccccn1)c1nc(C2CC2)ncc1-c1ccccc1Cl [Example I-510, 5-(2-chlorophenyl)-2-cyclopropyl-N′-(pyridin-2-yl)pyrimidine-4-carbohydrazide] | 100 | 100 | 100 | 100 | 100 | 100 | 100 | 100 | 100 | 100 | 100 | 90 | 90 | 100 | 100 | 100 | 90 | 90 | 90 | 100 | Pre-emergence action against SETVI [13]: 90%
4 | CC(=O)N(NC(=O)c1nc(C2CC2)ncc1-c1ccccc1Cl)c1ccccn1 [Example I-513, N′-acetyl-5-(2-chlorophenyl)-2-cyclopropyl-N′-(pyridin-2-yl)pyrimidine-4-carbohydrazide] |  | 100 | 100 | 100 |  | 100 | 100 | 100 | 100 |  | 90 | 100 | 90 | 100 | 100 | 100 | 100 | 100 |  |  | 
5 | CN(NC(=O)c1nc(C2CC2)ncc1-c1ccccc1Cl)C(=O)OC(C)(C)C [Example I-548, tert-butyl 2-{[5-(2-chlorophenyl)-2-cyclopropylpyrimidin-4-yl]carbonyl}-1-methylhydrazinecarboxylate] | 90 | 100 |  | 90 |  |  |  | 100 | 100 |  | 90 |  |  |  | 100 | 100 |  | 90 |  |  | 
6 | CCNC(=O)NNC(=O)c1nc(C2CC2)ncc1-c1ccccc1Cl [Example I-552, 2-{[5-(2-chlorophenyl)-2-cyclopropylpyrimidin-4-yl]carbonyl}-N-ethylhydrazinecarboxamide] |  | 90 | 100 | 100 |  |  | 100 | 100 | 100 | 90 | 90 | 90 | 90 | 100 | 100 | 100 | 90 | 100 | 90 | 90 | Pre-emergence action against ABUTH [14]: 90%
7 | O=C(NN=C1CCOCC1)c1nc(C2CC2)ncc1-c1ccccc1Cl [Example I-559, 5-(2-chlorophenyl)-2-cyclopropyl-N′-(tetrahydro-4H-pyran-4-ylidene)pyrimidine-4-carbohydrazide] | 90 | 100 | 100 | 100 |  | 90 | 100 | 100 | 100 | 100 | 100 | 100 |  | 100 | 100 | 100 | 90 | 90 | 90 | 100 | herbicidal efficacy against harmful plants in the case of post-emergence treatment [5]: good herbicidal efficacy
8 | CCOC(=O)NNC(=O)c1nc(C2CC2)ncc1-c1ccc(F)cc1Cl [Example I-2591, ethyl 2-{[5-(2-chloro-4-fluorophenyl)-2-cyclopropylpyrimidin-4-yl]carbonyl}hydrazinecarboxylate] |  | 100 | 100 | 100 |  |  | 100 | 100 | 100 |  | 100 |  |  | 90 | 100 | 100 |  | 90 |  |  | 
